Results published in US8158621B2, “Methods of treating or preventing autoimmune diseases with 2,4-pyrimidinediamine compounds” (Rigel Pharmaceuticals, Inc., priority 2002, dated 2012).
Where two headings read alike, the source gives them in different places.

Tested on: Human Jurkat T-cells (clone N)
Experiment: Jurkat T-cell activation (anti-TCR, CD69 upregulation)
Type: cell-based
Procedure: The screening process took place over three days.
On the first day of the screen, cultured cells were spun down on a centrifuge (1000 rpm, 5 minutes) and resuspended at 3.0×10^5 cells/ml in RPMI+5% FBS. On the second day of the screen, cells were spun down at 1000 rpm for 5 minutes and resuspended in RPMI+5% FBS at 1.3×10^5 cells/ml. 85 μl of this cell suspension were added to the wells of U-bottom 96 well plates (Corning) 85 μl of compound or diluted RPMI+5% FBS (as a control) only was added to each well and incubated at 37° C. for 1 hour. The cells were then stimulated with anti-TCR (C305) at: 500 ng/ml by adding a 8× solution in 25 μl to the plated cells. The cells were then incubated at 37° C. for 20 hrs.
On the third day of the screen, the plates were spun at 2500 RPM for 1 minute on a Beckman GS-6R centrifuge, and the medium was then removed. 50 μl staining solution (1:100 dilution of anti-CD69-APC antibody (Becton Dickenson) in PBS+2% FBS) was then added to each well, followed by incubation of the plates 4 degrees for 20 minutes in the dark. 150 μl of wash buffer (PBS+2% FBS) was then added to each well, and the plates were spun at 3000 RPM for 1 minute. The supernatant was again removed, and the pellet was resuspended by vortexing gently. 75 μl of PBS+2% FBS +Cytofix (1:4 dilution) was then added, the plates gently vortexed and wrap in aluminum foil. Cells from the plates were read using a flow cytometer coupled to an automated liquid handling system.
Varied concentrations of compound were compared to solvent only to determine the inhibition of T-cell activation IC50 of each compound.

Compound | IC50 (Homo sapiens, Jurkat) [µM] | IC50 [µM] | further results
O=[N+]([O-])c1cccc(Nc2ncc(F)c(Nc3cccc([N+](=O)[O-])c3)n2)c1 [Compound R950160] |  |  | IC50 (Homo sapiens): > 10 µM
CNC(=O)COc1cccc(Nc2ncc(F)c(Nc3cccc(OC)c3)n2)c1 [Compound R926738] |  | 2.22 | 
CCOC(=O)c1cc2cc(Nc3ncc(F)c(Nc4cccc(O)c4)n3)ccc2[nH]1 [Compound R926615] | 1.87 |  | 
CC1(C)Oc2ccc(Nc3nc(Cl)ncc3F)cc2NC1=O [Compound R940322] |  | 4.57 | 
COC(=O)COc1cccc(Nc2ncc(F)c(Nc3cc(C)c(O)c(C)c3)n2)c1 [Compound R945139] |  | 13.9 | 
CNC(=O)COc1cccc(Nc2ncc(F)c(Nc3cccc(C(C)(C)C)c3)n2)c1 [Compound R940276] |  | 2.53 | 
O=C(CNc1cccc(Nc2ncc(F)c(Nc3cccc(O)c3)n2)c1)N1CCNCC1 [Compound R950222] |  | 2.01 | 
Cc1cnc(Nc2ccc(OCc3nnnn3C)cc2)nc1Nc1cccc(O)c1 [Compound R920894] |  | 2.02 | 
CCOC(=O)COc1ccc(Nc2ncc(Br)c(Nc3cccc(O)c3)n2)cc1 [Compound R926396] |  | 6.59 | 
O=C(CNc1cccc(Nc2ncc(F)c(Nc3cccc(NCCO)c3)n2)c1)NCCO [Compound R950231] |  | 8.69 | 
CC1(C)COC(COc2ccc(Nc3ncc(F)c(Nc4cccc(O)c4)n3)cc2)=N1 [Compound R926702] |  | 18.6 | 
CNC(=O)COc1cc(Nc2ncc(F)c(Nc3cccc(O)c3)n2)cc(OCC(=O)NC)c1 [Compound R926930] |  | 10.5 | 
CNC(=O)COc1cccc(Nc2ncc(F)c(Nc3ccc(-n4cnc(Cl)c4Cl)cc3)n2)c1 [Compound R926812] |  | 6.76 | 
ON=C1CCOc2ccc(Nc3ncc(F)c(Nc4ccc5c(c4)C(=NO)CCO5)n3)cc21 [Compound R950381] |  | 0.805 | 
Fc1cnc(NC(c2ccccc2)c2ccccc2)nc1NC(c1ccccc1)c1ccccc1 [Compound R935005] | > 10 |  | 
CN(C)c1cccc(Nc2ncc(F)c(Nc3cccc(N(C)C)c3)n2)c1 [Compound R950182] | > 10 |  | 
Oc1cccc(Nc2ncc(F)c(Nc3ccc4[nH]ncc4c3)n2)c1 [Compound R935268] |  | 2.91 | 

Continued, in another order:

IC50 (Homo sapiens, Jurkat) [µM] | IC50 [µM] | Compound | further results
> 10 |  | Fc1cnc(Nc2ccc(Cl)cc2)nc1Nc1ccc(Cl)cc1 [Compound R926206] | 
 | 0.122 | CNCCOc1cccc(Nc2ncc(F)c(Nc3ccc4c(c3)OCCO4)n2)c1 [Compound R926510] | 
 | 6.26 | OCCn1ncc2cc(Nc3nc(Nc4ccc5c(c4)OCCO5)ncc3F)ccc21 [Compound R935258] | 
 | > 10 | CCOC(=O)c1cnc(Nc2ccc(OCC(=O)NCC3CC3)cc2)nc1Nc1cccc(O)c1 [Compound R925838] | 
7.19 |  | Brc1cnc(Nc2ccc3c(c2)OCCO3)nc1Nc1ccc2c(c1)OCCO2 [Compound R925771] | 
 | 1.22 | CC(C)(C)c1cccc(Nc2nc(Nc3cccc(OCC(=O)NCC(O)CO)c3)ncc2F)c1 (centres unmarked) [Compound R940277] | 
 | 2.09 | CC1(C)Oc2ccc(Nc3nc(Nc4cccc(O)c4)ncc3F)cc2NC1=O [Compound R940346] | 
> 10 |  | O=C(O)c1cccc(Nc2ncc(F)c(Nc3cccc(C(=O)O)c3)n2)c1 [Compound R945036] | 
 | 9.79 | CCOC(=O)COc1cccc(Nc2ncc(F)c(Nc3ccc4c(c3)C(OC)CCO4)n2)c1 (centres unmarked) [Compound R950294] | 
> 10 |  | Oc1cccc(Nc2nc(NCCc3c[nH]c4ccccc34)ncc2F)c1 [Compound R945117] | 
 | 21.2 | CCOC(=O)c1cnc(N[C@H](C(=O)OCC)C(C)C)nc1N[C@H](C(=O)OCC)C(C)C [Compound R926527] | 
6.63 |  | CN(C)c1ccc(Nc2ncc(F)c(Nc3ccc(N(C)C)cc3)n2)cc1 [Compound R926086] | 
> 10 |  | Fc1cnc(Nc2cccnc2)nc1Nc1ccc2c(c1)OCCO2 [Compound R920668] | 
2.37 |  | CC(C)Oc1ccc(Nc2nc(Nc3ccc(OCCO)cc3)ncc2F)cc1 [Compound R935160] | 
 | 1.8 | O=C(CNc1cccc(Nc2ncc(F)c(Nc3ccc4c(c3)OCCO4)n2)c1)NCCO [Compound R950195] | 
